The source made the active and inactive calls.
Assays:
[1] = target: T1, Probable nicotinate-nucleotide adenylyltransferase (Staphylococcus aureus (strain N315), UniProt P65502); assay type: functional, Staphylococcus aureus subsp. aureus N315; settings: read-out: IC50_Mean;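 for IC50 Mean: confirmatory dose-response retesting of NadD inhibitor hits first found in an ultra-high-throughput screen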
[2] = target: T1, Probable nicotinate-nucleotide adenylyltransferase; assay type: functional, Staphylococcus aureus subsp. aureus N315
[3] = blockers of CRF-binding protein–CRF-R2 complex – cell-based, uHTS hits, 384-well, dose response (AID 651639); assay type: functional, Homo sapiens; settings: read-out: IC50_Mean
[4] = target: T2, Corticotropin-releasing factor receptor 2/Corticotropin-releasing factor-binding protein (Homo sapiens, UniProt P24387+Q13324); test: Dose Response confirmation of uHTS hits for small molecule antagonists of the CRF-binding protein and CRF-R2 receptor complex.; assay type: functional; settings: read-out: IC50_Mean
T2 sequence (Q13324 whole entry): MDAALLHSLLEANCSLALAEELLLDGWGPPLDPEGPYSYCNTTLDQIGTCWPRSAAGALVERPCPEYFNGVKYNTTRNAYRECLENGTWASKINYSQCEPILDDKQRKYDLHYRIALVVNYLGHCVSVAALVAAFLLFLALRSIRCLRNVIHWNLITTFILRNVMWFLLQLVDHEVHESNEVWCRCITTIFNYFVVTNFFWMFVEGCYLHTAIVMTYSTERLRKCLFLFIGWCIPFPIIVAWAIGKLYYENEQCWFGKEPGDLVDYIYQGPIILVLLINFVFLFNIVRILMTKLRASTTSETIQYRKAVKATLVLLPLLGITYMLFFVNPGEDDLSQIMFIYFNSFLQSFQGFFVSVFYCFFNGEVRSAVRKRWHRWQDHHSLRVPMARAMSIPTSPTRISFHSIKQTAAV
T2 sequence (P24387 whole entry): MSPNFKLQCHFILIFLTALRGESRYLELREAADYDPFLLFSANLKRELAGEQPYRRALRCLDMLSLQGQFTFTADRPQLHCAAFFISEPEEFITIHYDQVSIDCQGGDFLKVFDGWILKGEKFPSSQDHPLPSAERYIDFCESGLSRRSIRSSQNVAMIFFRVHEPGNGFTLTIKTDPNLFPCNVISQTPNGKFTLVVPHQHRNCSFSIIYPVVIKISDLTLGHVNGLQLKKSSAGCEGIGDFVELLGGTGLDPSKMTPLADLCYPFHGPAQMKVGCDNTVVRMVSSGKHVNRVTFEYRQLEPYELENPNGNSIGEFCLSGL

[5] = target: T2, Corticotropin-releasing factor receptor 2/Corticotropin-releasing factor-binding protein; test: activators of CRF receptor 2 with binding protein – uHTS hits, confirmation (AID 602473); assay type: functional; settings: read-out: EC50_Mean
[6] = target: ADP-ribosylation factor GTPase-activating protein 1 (Rattus norvegicus, UniProt Q62848); test: Fluorescence polarization-based biochemical high throughput dose response screening assay to identify inhibitors of ADP-ribosylation factor GTPase activating protein 1 (ARFGAP1).; assay type: functional
ADP-ribosylation factor GTPase-activating protein 1, sequence (Q62848 whole entry): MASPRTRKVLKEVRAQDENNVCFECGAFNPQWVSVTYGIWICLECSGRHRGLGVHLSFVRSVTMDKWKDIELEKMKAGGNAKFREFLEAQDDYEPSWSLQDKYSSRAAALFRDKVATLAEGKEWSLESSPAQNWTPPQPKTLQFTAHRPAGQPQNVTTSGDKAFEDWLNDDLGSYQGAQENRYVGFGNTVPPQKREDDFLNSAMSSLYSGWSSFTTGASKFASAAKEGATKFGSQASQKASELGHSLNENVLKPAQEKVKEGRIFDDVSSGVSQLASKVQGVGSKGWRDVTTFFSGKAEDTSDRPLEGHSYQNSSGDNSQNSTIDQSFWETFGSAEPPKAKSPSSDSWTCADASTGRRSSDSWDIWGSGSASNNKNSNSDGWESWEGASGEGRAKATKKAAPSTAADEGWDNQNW

T1 sequence (P65502 whole entry): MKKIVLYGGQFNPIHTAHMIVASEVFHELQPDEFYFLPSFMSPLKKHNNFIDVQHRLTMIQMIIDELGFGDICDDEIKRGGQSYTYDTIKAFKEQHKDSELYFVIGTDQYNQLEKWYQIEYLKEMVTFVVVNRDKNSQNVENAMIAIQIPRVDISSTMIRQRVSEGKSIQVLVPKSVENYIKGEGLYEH

Row | Compound | IC50 [1] | IC50 [2] | IC50 [3] | IC50 [4] | EC50 [5] | IC50 [6]
1 | Cc1cc2[nH]c(=O)c(=O)[nH]c2cc1S(=O)(=O)N1CCN(c2cccc(C(F)(F)F)c2)CC1 | 29.2 µM (active) | 9.57 µM (active) | – | – | – | –
2 | CCc1ccc(-c2cc(C)no2)cc1S(=O)(=O)Nc1ccc(Cl)cn1 | – | – | > 20 µM (inactive) | 27.5 µM (active) | > 53 µM (inactive) | –
3 | COc1cc(/C=C2\SC(N)=NC2=O)ccc1OCC(=O)Nc1ccc(C)cc1 | – | – | – | – | – | 28.3 µM (inactive)
4 | Cc1cccc(CSc2ccc3nnc(-c4cccs4)n3n2)c1 | – | – | 2.57 µM (active) | 32.2 µM (active) | > 53 µM (inactive) | –
